Experimental data published in patent US20100267561A1, “HERBICIDAL PYRIDAZINONE DERIVATIVES” (priority 2007, published 2010).

Columns and labels:
Test in all cases: Test B pre-/postemergence plant response
Format in all cases: in vivo
[1] = system: johnsongrass (Sorghum halepense)
How it was run: (§1)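 Preemergence and postemergence (plants 2-18 cm, 1- to 4-leaf stage) applications used test chemicals in a non-phytotoxic solvent with surfactant. Plants were held in a greenhouse 13 to 15 days, then rated visually against controls on a 0-100 scale (0 no effect, 100 complete control).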

[2] = system: kochia (Kochia scoparia)
How it was run: as §1

[3] = system: catchweed bedstraw (Galium aparine); details: Preemergence; for Galium plant response rating: scale 0 to 100
How it was run: as §1

[4] = system: eastern black (E.B.) nightshade (Solanum ptycanthum); details: Preemergence; for Nightshade, E. B. plant response rating: scale 0 to 100
How it was run: as §1

[5] = system: Russian thistle (Salsola iberica); details: Preemergence; for Russian Thistle plant response rating: scale 0 to 100
How it was run: as §1

[6] = system: Italian ryegrass (Lolium multiflorum)
How it was run: as §1

[7] = system: pigweed (Amaranthus retroflexus)
How it was run: as §1

[8] = system: goosegrass (Eleusine indica)
How it was run: as §1

[9] = system: soybean (Glycine max)
How it was run: as §1

[10] = system: giant foxtail (Setaria faberii)
How it was run: as §1

[11] = system: common ragweed (Ambrosia elation)
How it was run: as §1

[12] = system: woolly cupgrass (Eriochloa villosa)
How it was run: as §1

[13] = system: lambsquarters (Chenopodium album)
How it was run: as §1

[14] = system: blackgrass (Alopecurus myosuroides); details: for Blackgrass plant response rating: 8 g ai/ha
How it was run: as §1

[15] = 8 g ai/ha, postemergence, 0-100 scale
[16] = Postemergence, 16 g ai/ha, scale 0 to 100
[17] = Postemergence, 31 g ai/ha, scale 0 to 100
[18] = Postemergence, 62 g ai/ha, scale 0 to 100, 0 no effect, 100 complete control
[19] = Preemergence, 31 g ai/ha, scale 0 to 100 (0 no effect, 100 complete control)
[20] = Preemergence, 62 g ai/ha, 0 to 100 scale, 0 no effect, 100 complete control
[21] = Preemergence, 8 g ai/ha, scale 0 to 100
[22] = Preemergence, 16 g ai/ha, scale 0 to 100
[23] = 31 g ai/ha, scale 0 to 100 (0 no effect, 100 complete control)
[24] = 62 g ai/ha, 0 to 100 scale, 0 no effect, 100 complete control

Cc1cc(-c2ccc(Cl)cc2)nn1-c1c(OC(=O)OCC(C)C)cnn(C)c1=O [Compound 57]
Johnsongrass plant response rating [1, 15]: 15
Plant response rating, Johnsongrass [1, 16]: 65
Plant response rating, Johnsongrass [1, 17]: 90
Plant response rating, Johnsongrass [1, 18]: 100
Plant response rating, Johnsongrass [1, 19]: 90
Plant response rating, Johnsongrass [1, 20]: 100
Johnsongrass plant response rating [1, 21]: 65
Johnsongrass plant response rating [1, 22]: 90
Kochia plant response rating [2, 15]: 0
Plant response rating, Kochia [2, 16]: 0
Plant response rating, Kochia [2, 17]: 0
Plant response rating, Kochia [2, 18]: 0
Plant response rating, Kochia [2, 19]: 0
Plant response rating, Kochia [2, 20]: 0
Kochia plant response rating [2, 21]: 0
Kochia plant response rating [2, 22]: 0
Plant response rating, Galium [3, 23]: 0
Plant response rating, Galium [3, 24]: 0
Galium plant response rating ([3]; 8 g ai/ha): 0
Galium plant response rating ([3]; 16 g ai/ha): 0
Plant response rating, Nightshade, E. B. [4, 23]: 0
Plant response rating, Nightshade, E. B. [4, 24]: 0
Nightshade, E. B. plant response rating ([4]; 8 g ai/ha): 0
Nightshade, E. B. plant response rating ([4]; 16 g ai/ha): 0
Plant response rating, Russian Thistle [5, 23]: 0
Plant response rating, Russian Thistle [5, 24]: 0
Russian Thistle plant response rating ([5]; 8 g ai/ha): 0
Russian Thistle plant response rating ([5]; 16 g ai/ha): 0
Ryegrass, Italian plant response rating [6, 15]: 80
Plant response rating, Ryegrass, Italian [6, 16]: 95
Plant response rating, Ryegrass, Italian [6, 17]: 95
Plant response rating, Ryegrass, Italian [6, 18]: 95
Plant response rating, Ryegrass, Italian [6, 19]: 95
Plant response rating, Ryegrass, Italian [6, 20]: 100
Ryegrass, Italian plant response rating [6, 21]: 0
Ryegrass, Italian plant response rating [6, 22]: 70
Pigweed plant response rating [7, 15]: 0
Plant response rating, Pigweed [7, 16]: 0
Plant response rating, Pigweed [7, 17]: 0
Plant response rating, Pigweed [7, 18]: 0
Plant response rating, Pigweed [7, 19]: 0
Plant response rating, Pigweed [7, 20]: 0
Pigweed plant response rating [7, 21]: 0
Pigweed plant response rating [7, 22]: 0
Goosegrass plant response rating [8, 15]: 65
Plant response rating, Goosegrass [8, 16]: 80
Plant response rating, Goosegrass [8, 17]: 85
Plant response rating, Goosegrass [8, 18]: 90
Plant response rating, Goosegrass [8, 19]: 98
Plant response rating, Goosegrass [8, 20]: 100
Goosegrass plant response rating [8, 21]: 0
Goosegrass plant response rating [8, 22]: 0
Soybean plant response rating [9, 15]: 0
Plant response rating, Soybean [9, 16]: 0
Plant response rating, Soybean [9, 17]: 0
Plant response rating, Soybean [9, 18]: 0
Plant response rating, Soybean [9, 19]: 0
Plant response rating, Soybean [9, 20]: 0
Soybean plant response rating [9, 21]: 0
Soybean plant response rating [9, 22]: 0
Foxtail, Giant plant response rating [10, 15]: 80
Plant response rating, Foxtail, Giant [10, 16]: 95
Plant response rating, Foxtail, Giant [10, 17]: 98
Plant response rating, Foxtail, Giant [10, 18]: 100
Plant response rating, Foxtail, Giant [10, 19]: 100
Plant response rating, Foxtail, Giant [10, 20]: 100
Foxtail, Giant plant response rating [10, 21]: 98
Foxtail, Giant plant response rating [10, 22]: 98
Ragweed plant response rating [11, 15]: 0
Plant response rating, Ragweed [11, 16]: 0
Plant response rating, Ragweed [11, 17]: 0
Plant response rating, Ragweed [11, 18]: 0
Plant response rating, Ragweed [11, 19]: 0
Plant response rating, Ragweed [11, 20]: 0
Ragweed plant response rating [11, 21]: 0
Ragweed plant response rating [11, 22]: 0
Cupgrass, Woolly plant response rating [12, 15]: 65
Plant response rating, Cupgrass, Woolly [12, 16]: 90
Plant response rating, Cupgrass, Woolly [12, 17]: 100
Plant response rating, Cupgrass, Woolly [12, 18]: 100
Plant response rating, Cupgrass, Woolly [12, 19]: 85
Plant response rating, Cupgrass, Woolly [12, 20]: 100
Cupgrass, Woolly plant response rating [12, 21]: 0
Cupgrass, Woolly plant response rating [12, 22]: 20
Lambsquarters plant response rating [13, 15]: 0
Plant response rating, Lambsquarters [13, 16]: 0
Plant response rating, Lambsquarters [13, 17]: 0
Plant response rating, Lambsquarters [13, 18]: 0
Plant response rating, Lambsquarters [13, 19]: 20
Plant response rating, Lambsquarters [13, 20]: 65
Lambsquarters plant response rating [13, 21]: 0
Lambsquarters plant response rating [13, 22]: 0
Blackgrass plant response rating ([14]; postemergence, 0-100 scale): 40
Plant response rating, Blackgrass [14, 16]: 80
Plant response rating, Blackgrass [14, 17]: 80
Plant response rating, Blackgrass [14, 18]: 95
Plant response rating, Blackgrass ([14]; Preemergence, 16 g ai/ha, scale 0 to 100 (0 no effect, 100 complete control)): 100
Plant response rating, Blackgrass [14, 19]: 100
Plant response rating, Blackgrass [14, 20]: 100
Blackgrass plant response rating ([14]; Preemergence, scale 0 to 100): 40
